Assay results published in patent publication US3988340A, “6-Alkoxymethyl-1,2,3,5-tetrahydroimidazo[2,1-b]quinazolin-2-ones and 7-alkoxymethyl-6-[H]-1,2,3,4-tetrahydropyrimido[2,1-b]quinazolin-2-ones” (Bristol-Myers Company, priority 1975, dated 1976).
Values after ≈ are worked out from the molar mass of the structure shown. Like-named read-outs stand apart in the source and are kept apart here.

What was measured:
[1] = Crystal formation in the liver of dogs at very high doses; type: in vivo, dog; conditions: compound or a metabolite
[2] = tested on: Dog Platelet Rich Plasma; assay: Ex vivo ADP induced platelet aggregation in dog PRP after oral drug administration; conditions: Canis lupus familiaris, PRP obtained before and 1 hr. after oral drug administration, read-out: ED50, ex vivo inhibition of ADP induced aggregation
Procedure: BL-4784A was also tested ex vivo in dogs where ADP was used to induce aggregation in PRP samples obtained before and 1 hr. after oral drug administration.
Before dosing the animals, blood samples are taken. The blood is centrifuged to obtain the blood platelet-rich plasma. Aggregation of this plasma is induced with ADP or collagen. This is the control.
The animals are then dosed with the compounds to be tested (orally or parenterally). Depending upon the route of administration, one to two hours are allowed to elapse after dosing. Blood is drawn and the same procedure as for the control in untreated animals.
The dose required to produce 50% inhibition of the aggregation is determined by dose response data obtained in this manner.

[3] = Crystal deposits in tissues of animal species evaluated; type: in vivo; conditions: any tissue of any animal species evaluated up to the present time
[4] = tested on: Rabbit Platelet Rich Plasma; assay: In vitro inhibition of induced platelet aggregation in the aggregometer, rabbit platelet rich plasma; type: cell-based; conditions: Oryctolagus cuniculus, read-out: EC50 & 95% Confidence Limits
Procedure: The aggregometer method of Born (1), as modified by Mustard et al. (2) was used to assess the in vitro activity of the various compounds as to inhibition of adenosine diphosphate (ADP) and collagen induced platelet aggregation. Platelet rich plasma was separated by centrifugation from citrated (3.8 percent) rabbit blood. […] (3) was used to induce aggregation. The various compounds tested were dissolved in dimethylsulfoxide (DMSO) so that 5 mcl. added to the platelet rich plasma would yield the desired test concentration. Vehicle control trials were done and compared with aggregation induced in platelet rich plasma containing various concentrations of the test compounds. Dose response curves were obtained and Effective Concentration (EC50) values calculated.
Compound 12a (BL-4784A) has been evaluated in a series of in vitro, ex vivo and in vivo animal models of platelet aggregation and thrombosis.

[5] = tested on: electrically induced carotid artery thrombosis; assay: Electrically induced carotid artery thrombosis in the dog; type: in vivo; conditions: Canis lupus familiaris, po
Description: (§1) Methodology for these three in vivo techniques has been previously reported (4, 5).

[6] = Mean aortic blood pressure in rats after oral administration; type: in vivo; conditions: 50 mg/kg oral; for Mean Aortic Blood Pressure % Change / Mean Aortic Blood Pressure: N=9, mean ± 1 S.E.
Procedure: The blood pressure of unanesthetized rats and dogs was measured directly by means of a transducer attached to an intra-arterial cannula and in anesthetized dogs by a mercury manometer attached to a carotid cannula.
The compounds of the instant invention were tested as the hydrochloride salts by the above method in normotensive rats in doses of 50 mg./kg. orally.
Compound 12a (BL-4784a) was tested for its hypotensive activity in rats as follows:
Rats were dosed orally with the test drug (50 mg/kg) or saline and blood pressure measurements were made at 30, 90, 150 and 300 mins. after drug administration.
Saline administration in a volume equivalent to drug administration had only a minimal effect.

[7] = tested on: biolaser induced thrombosis; assay: Biolaser induced thrombosis in the rabbit ear chamber; type: in vivo
Description: as §1

[8] = tested on: Dog Platelet Rich Plasma; assay: In vitro inhibition of ADP induced platelet aggregation in the aggregometer, dog platelet rich plasma; type: cell-based; conditions: Canis lupus familiaris, read-out: EC50 & 95% Confidence Limits
[9] = Hypotensive activity compared with BL-3459; type: in vivo; conditions: associated with antiaggregative activity; versus BL-3459
[10] = In vivo solubility of compound or metabolite; type: physicochemical; conditions: compound or its metabolite, versus BL-3459
[11] = tested on: blood platelet aggregation; assay: Blood platelet antiaggregative potency compared with BL-3459; conditions: versus BL-3459

With `Cc1cccc2c1CN1CC(=O)NC1=N2` [BL-3459] the “Crystal formation in liver” value [1] was “formed crystals in the liver of dogs at very high doses”.
In the case of `COCc1cccc2c1CN1CC(=O)NC1=N2` [Compound 12a, 6-(α-methoxymethyl)-1,2,3,5-tetrahydroimidazo[2,1-b]quinazolin-2-one], the ED50 [2] is reported as 1.79 mg/kg, the “Crystal deposits in tissue” value [3] is reported as “no crystal deposits have been observed in any tissue of any animal species” and the EC50 ([4]; ADP induced (2.93 × 10^-5 M)) is reported as 0.2 mg/L (≈ 0.865 µM). The EC50 ([4]; Antigen-Antibody complex (egg albumin, 2 μg/ml), PRP from sensitized rabbits) was 0.13 mg/L, the EC50 ([4]; Arachidonic acid induced (50 μg/ml)) was 0.27 mg/L (≈ 1.17 µM) and the EC50 ([4]; Collagen induced) was 0.09 mg/L (≈ 0.389 µM). For the same molecule, the EC50 ([4]; Thrombin induced (1 unit per ml)) was 0.63 mg/L (≈ 2.72 µM), the ED50 [5] was 10.5 mg/kg and the “Aortic blood pressure lowering” value ([6]; result in words) was “significant lowering of aortic blood pressure”. For the same molecule, the “Mean Aortic Blood Pressure % Change” value ([6]; 30 min) was -33 ± 4%, the “Mean Aortic Blood Pressure” value ([6]; 30 min, *P = <.05) was 73 ± 5 mm Hg and the “Mean Aortic Blood Pressure % Change” value ([6]; 90 min) was -27 ± 4%. For the same molecule, the “Mean Aortic Blood Pressure” value ([6]; 90 min, *P = <.05) was 79 ± 3 mm Hg, the “Mean Aortic Blood Pressure % Change” value ([6]; 150 min) was -23 ± 2% and the “Mean Aortic Blood Pressure” value ([6]; 150 min, *P = <.05) was 84 ± 3 mm Hg. The “Mean Aortic Blood Pressure % Change” value ([6]; 300 min) was -20 ± 4%, the “Mean Aortic Blood Pressure” value ([6]; 300 min, *P = <.05) was 87 ± 3 mm Hg and the “Mean Aortic Blood Pressure” value ([6]; time 0 min (before drug)) was 111 ± 3 mm Hg. The ED50 ([7]; Oryctolagus cuniculus, rabbit ear chamber, po) was 5.3 mg/kg, the “Activity in in vivo animal models of thrombosis” value ([7]; result in words for three in vivo animal models) was “significant activity in three in vivo animal models” and the EC50 [8] was 0.19 mg/L (≈ 0.822 µM). The “Degree of hypotensive activity” value [9] was “lower degree of hypotensive activity”, the Solubility in vivo [10] was “more soluble in vivo” and the “Potency as blood platelet antiaggregate” value [11] was “more potent than BL-3459”.
